Measurements published in ChEMBL document CHEMBL5696442, “Discovery of type II inhibitors of TGFβ-activated kinase 1 (TAK1) and mitogen-activated protein kinase kinase kinase kinase 2 (MAP4K2)” (J Med Chem, 2015).
The source made the active and inactive calls. The calls are words filed in the database; no cut-off is given here.

Experiments:
[1] = molecular target: Tyrosine-protein kinase Tec (Homo sapiens) (UniProt P42680); experiment: Inhibition of TEC (unknown origin) at 10 uM by Ambit Kinomescan binding assay
[2] = Inhibition of MARK2/3 K2 labeling site in human Huh-7 cells at 1 uM by KiNativ Profiling analysis relative to control; conditions: condition cancer
[3] = molecular target: Mitogen-activated protein kinase 11 (Homo sapiens) (UniProt Q15759); experiment: Inhibition of p38beta (unknown origin) at 10 uM by Ambit Kinomescan binding assay relative to control; values are per cent of control
[4] = molecular target: T1, Dual specificity mitogen-activated protein kinase kinase 4 (Homo sapiens) (UniProt P45985); experiment: Inhibition of MEK4 (unknown origin) at 10 uM by Ambit Kinomescan binding assay
T1 sequence (whole entry): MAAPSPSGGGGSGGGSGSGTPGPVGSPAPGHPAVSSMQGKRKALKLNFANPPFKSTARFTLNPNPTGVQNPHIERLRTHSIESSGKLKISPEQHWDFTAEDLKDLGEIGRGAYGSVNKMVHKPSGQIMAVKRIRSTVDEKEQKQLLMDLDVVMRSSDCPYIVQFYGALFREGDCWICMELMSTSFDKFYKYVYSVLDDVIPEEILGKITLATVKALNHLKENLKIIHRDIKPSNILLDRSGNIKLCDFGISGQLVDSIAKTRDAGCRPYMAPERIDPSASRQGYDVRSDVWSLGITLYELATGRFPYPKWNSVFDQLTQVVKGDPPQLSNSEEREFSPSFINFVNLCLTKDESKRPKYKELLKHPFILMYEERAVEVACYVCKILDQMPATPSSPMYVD

[5] = molecular target: T2, Serine/threonine-protein kinase Chk1 (Homo sapiens) (UniProt O14757); experiment: Inhibition of CHK1 Lys2 labeling site harbouring DIKPENLLLDERDNLK in human A-375 cells at 5 uM by KiNativ Profiling analysis relative to control; assay type: cell-based
T2 sequence (whole entry): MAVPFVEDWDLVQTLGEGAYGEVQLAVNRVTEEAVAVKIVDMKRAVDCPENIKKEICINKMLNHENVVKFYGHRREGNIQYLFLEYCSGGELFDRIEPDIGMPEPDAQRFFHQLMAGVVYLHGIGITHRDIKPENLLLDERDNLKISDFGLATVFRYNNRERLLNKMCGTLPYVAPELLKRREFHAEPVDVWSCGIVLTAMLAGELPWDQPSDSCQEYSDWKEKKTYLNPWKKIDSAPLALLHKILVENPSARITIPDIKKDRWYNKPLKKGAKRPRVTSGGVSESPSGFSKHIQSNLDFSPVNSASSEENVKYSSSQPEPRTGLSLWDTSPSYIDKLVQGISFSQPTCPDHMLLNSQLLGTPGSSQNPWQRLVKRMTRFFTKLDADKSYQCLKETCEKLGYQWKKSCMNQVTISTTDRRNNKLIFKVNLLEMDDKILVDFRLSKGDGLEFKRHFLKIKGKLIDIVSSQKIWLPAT

[6] = molecular target: Phosphatidylinositol 4,5-bisphosphate 3-kinase catalytic subunit gamma isoform (Homo sapiens) (UniProt P48736); experiment: Inhibition of PIK3CG (unknown origin) at 10 uM by Ambit Kinomescan binding assay
Phosphatidylinositol 4,5-bisphosphate 3-kinase catalytic subunit gamma isoform (Homo sapiens), sequence (P48736 whole entry, looked up, canonical isoform): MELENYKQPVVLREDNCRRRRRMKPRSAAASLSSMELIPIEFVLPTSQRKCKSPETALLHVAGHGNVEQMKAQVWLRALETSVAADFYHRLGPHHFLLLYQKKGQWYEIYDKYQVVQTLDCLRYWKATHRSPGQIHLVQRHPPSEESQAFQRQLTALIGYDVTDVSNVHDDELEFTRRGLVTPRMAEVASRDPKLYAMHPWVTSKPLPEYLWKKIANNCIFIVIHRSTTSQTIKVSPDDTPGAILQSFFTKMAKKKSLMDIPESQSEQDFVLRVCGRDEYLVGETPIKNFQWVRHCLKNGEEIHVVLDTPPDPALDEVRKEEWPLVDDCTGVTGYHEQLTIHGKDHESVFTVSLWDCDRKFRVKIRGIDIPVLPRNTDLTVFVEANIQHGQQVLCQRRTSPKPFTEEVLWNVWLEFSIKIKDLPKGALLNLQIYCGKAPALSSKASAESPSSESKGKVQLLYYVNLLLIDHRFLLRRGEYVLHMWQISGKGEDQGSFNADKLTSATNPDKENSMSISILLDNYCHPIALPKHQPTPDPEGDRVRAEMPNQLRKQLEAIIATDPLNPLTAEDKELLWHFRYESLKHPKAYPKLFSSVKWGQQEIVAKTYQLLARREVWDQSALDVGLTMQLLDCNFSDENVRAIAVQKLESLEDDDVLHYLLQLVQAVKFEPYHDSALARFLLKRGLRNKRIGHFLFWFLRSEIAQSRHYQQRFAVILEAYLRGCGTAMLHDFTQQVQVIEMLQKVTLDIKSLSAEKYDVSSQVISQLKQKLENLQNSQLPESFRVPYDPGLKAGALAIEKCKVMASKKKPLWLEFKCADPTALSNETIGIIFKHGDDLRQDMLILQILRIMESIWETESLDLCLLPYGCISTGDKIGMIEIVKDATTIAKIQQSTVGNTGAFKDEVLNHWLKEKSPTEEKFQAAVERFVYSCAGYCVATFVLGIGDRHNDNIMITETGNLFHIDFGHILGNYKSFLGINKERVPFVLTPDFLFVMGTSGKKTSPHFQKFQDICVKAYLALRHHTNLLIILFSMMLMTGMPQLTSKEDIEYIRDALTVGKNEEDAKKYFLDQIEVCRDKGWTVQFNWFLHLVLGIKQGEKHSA

[7] = tested on: 293-IL-1R; experiment: Inhibition of IL-1alpha induced p38 phosphorylation level in human 293-IL-1R cells preincubated for 1 hr followed by IL-1 alpha stimulation and measured after 30 mins by Western blot analysis; assay type: functional, cell-based; conditions: dose 0.01-10 µM
[8] = molecular target: T3, Dual specificity mitogen-activated protein kinase kinase 6 (Homo sapiens) (UniProt P52564); experiment: Inhibition of MAP2K6 K2 labeling site in human Huh-7 cells at 10 uM by KiNativ Profiling analysis relative to control; assay type: cell-based
T3 sequence (whole entry): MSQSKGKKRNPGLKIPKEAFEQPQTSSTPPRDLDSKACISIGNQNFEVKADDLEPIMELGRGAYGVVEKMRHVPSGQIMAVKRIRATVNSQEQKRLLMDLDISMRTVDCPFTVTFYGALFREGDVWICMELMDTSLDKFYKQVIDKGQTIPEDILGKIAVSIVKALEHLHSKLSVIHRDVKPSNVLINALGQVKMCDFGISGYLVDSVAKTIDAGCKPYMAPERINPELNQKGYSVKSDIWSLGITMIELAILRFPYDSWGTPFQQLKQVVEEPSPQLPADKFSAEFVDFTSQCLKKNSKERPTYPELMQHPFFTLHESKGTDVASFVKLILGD

[9] = molecular target: Serine/threonine-protein kinase pim-3 (Homo sapiens) (UniProt Q86V86); experiment: Inhibition of PIM3 (unknown origin) at 10 uM by Ambit Kinomescan binding assay
[10] = molecular target: Microtubule-associated serine/threonine-protein kinase 2 (Homo sapiens) (UniProt Q6P0Q8); experiment: Inhibition of MAST2 Lys2 labeling site in human A-375 cells at 5 uM by KiNativ Profiling analysis relative to control; assay type: cell-based
[11] = molecular target: Serine/threonine-protein kinase 38 (Homo sapiens) (UniProt Q15208); experiment: Inhibition of NDR1 K1 labeling site in human Huh-7 cells at 1 uM by KiNativ Profiling analysis relative to control; assay type: cell-based
[12] = tested on: Epidermal growth factor receptor (Homo sapiens), P00533 [UNDEFINED MUTATION]; experiment: Inhibition of EGFR E746-A750del mutant (unknown origin) at 10 uM by Ambit Kinomescan binding assay relative to control
[13] = molecular target: Serine/threonine-protein kinase PLK3 (Homo sapiens) (UniProt Q9H4B4); experiment: Inhibition of PLK3 (unknown origin) at 1 uM by Ambit Kinomescan binding assay relative to control; values are per cent of control
[14] = molecular target: Ribosomal protein S6 kinase alpha-4 (Homo sapiens) (UniProt O75676); experiment: Inhibition of MSK2 domain1 Lys2 labeling site in human A-375 cells at 5 uM by KiNativ Profiling analysis relative to control; assay type: cell-based
[15] = molecular target: MAP/microtubule affinity-regulating kinase 3 (Homo sapiens) (UniProt P27448); experiment: Inhibition of MARK3 Lys2 labeling site in human Huh-7 cells at 1 uM by KiNativ Profiling analysis relative to control; assay type: cell-based
[16] = molecular target: Serine/threonine-protein kinase WNK2 (Homo sapiens) (UniProt Q9Y3S1); experiment: Inhibition of Wnk2 Lys2 labeling site in human Huh-7 cells at 1 uM by KiNativ Profiling analysis relative to control; assay type: cell-based
Serine/threonine-protein kinase WNK2 (Homo sapiens), sequence (Q9Y3S1 whole entry): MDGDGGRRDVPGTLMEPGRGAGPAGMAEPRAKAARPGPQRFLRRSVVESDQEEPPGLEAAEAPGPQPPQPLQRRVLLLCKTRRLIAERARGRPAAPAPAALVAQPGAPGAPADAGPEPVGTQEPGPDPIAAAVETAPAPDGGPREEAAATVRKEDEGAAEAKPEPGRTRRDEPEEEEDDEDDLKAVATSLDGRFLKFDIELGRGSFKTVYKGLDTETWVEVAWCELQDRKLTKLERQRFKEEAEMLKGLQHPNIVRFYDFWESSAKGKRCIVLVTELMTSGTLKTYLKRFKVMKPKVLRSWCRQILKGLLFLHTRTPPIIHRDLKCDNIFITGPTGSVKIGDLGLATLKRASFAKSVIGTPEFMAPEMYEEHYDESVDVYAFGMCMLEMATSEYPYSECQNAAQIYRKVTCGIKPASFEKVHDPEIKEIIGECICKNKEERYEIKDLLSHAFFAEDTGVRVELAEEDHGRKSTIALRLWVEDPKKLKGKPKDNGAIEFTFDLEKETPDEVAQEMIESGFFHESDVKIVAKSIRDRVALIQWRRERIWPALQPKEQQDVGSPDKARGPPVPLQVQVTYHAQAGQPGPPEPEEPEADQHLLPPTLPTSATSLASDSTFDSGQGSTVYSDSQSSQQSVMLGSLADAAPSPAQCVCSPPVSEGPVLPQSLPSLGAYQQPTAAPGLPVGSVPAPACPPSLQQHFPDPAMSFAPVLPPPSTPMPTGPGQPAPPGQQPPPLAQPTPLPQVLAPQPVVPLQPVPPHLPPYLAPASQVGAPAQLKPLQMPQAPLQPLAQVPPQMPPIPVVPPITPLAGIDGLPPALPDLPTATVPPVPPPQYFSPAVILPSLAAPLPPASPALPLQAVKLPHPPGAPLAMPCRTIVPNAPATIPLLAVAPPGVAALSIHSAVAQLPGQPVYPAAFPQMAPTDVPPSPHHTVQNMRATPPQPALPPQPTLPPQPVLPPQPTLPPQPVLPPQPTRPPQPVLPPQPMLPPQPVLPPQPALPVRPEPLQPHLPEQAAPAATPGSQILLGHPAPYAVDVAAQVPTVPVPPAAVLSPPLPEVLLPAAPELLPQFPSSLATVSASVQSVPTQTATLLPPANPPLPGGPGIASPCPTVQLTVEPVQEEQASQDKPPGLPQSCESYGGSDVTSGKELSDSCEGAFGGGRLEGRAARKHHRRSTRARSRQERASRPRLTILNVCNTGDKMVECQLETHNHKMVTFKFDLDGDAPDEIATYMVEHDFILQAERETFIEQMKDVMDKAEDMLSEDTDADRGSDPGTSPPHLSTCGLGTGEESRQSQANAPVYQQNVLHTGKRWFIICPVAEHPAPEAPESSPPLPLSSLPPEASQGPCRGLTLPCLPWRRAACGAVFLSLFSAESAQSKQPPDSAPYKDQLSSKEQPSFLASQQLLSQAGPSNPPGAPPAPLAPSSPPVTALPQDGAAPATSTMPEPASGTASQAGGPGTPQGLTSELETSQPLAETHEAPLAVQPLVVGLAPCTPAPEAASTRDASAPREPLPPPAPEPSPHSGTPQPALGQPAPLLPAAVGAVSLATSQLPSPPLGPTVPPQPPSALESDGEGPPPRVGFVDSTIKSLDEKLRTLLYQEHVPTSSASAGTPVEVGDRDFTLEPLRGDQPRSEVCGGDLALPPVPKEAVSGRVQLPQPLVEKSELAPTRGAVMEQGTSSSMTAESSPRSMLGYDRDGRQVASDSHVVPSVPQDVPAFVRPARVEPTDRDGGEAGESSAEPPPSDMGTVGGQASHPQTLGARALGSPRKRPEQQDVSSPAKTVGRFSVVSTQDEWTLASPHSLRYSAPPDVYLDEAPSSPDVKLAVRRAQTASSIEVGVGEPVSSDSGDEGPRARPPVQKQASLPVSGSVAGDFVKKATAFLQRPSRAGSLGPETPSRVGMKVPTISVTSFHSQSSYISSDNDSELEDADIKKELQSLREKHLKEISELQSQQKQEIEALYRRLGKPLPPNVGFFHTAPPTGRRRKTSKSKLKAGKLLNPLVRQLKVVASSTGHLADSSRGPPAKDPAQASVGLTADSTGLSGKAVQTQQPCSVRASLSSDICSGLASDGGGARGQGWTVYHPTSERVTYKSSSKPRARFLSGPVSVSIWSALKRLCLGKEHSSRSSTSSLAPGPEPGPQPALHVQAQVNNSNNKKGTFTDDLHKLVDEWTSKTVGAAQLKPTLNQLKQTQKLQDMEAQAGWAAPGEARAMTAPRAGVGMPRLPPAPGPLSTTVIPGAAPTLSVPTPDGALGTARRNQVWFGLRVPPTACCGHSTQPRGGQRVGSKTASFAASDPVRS

[17] = molecular target: Serine/threonine-protein kinase WNK3 (Homo sapiens) (UniProt Q9BYP7); experiment: Inhibition of Wnk3 Lys2 labeling site in human Huh-7 cell lysate at 1 uM by KiNativ Profiling analysis relative to control; assay type: subcellular
[18] = molecular target: Mitogen-activated protein kinase kinase kinase 1 (Homo sapiens) (UniProt Q13233); experiment: Inhibition of MAP3K1 Lys2 labeling site in human Huh-7 cell lysate at 1 uM by KiNativ Profiling analysis relative to control; assay type: subcellular
Mitogen-activated protein kinase kinase kinase 1 (Homo sapiens), sequence (Q13233 whole entry): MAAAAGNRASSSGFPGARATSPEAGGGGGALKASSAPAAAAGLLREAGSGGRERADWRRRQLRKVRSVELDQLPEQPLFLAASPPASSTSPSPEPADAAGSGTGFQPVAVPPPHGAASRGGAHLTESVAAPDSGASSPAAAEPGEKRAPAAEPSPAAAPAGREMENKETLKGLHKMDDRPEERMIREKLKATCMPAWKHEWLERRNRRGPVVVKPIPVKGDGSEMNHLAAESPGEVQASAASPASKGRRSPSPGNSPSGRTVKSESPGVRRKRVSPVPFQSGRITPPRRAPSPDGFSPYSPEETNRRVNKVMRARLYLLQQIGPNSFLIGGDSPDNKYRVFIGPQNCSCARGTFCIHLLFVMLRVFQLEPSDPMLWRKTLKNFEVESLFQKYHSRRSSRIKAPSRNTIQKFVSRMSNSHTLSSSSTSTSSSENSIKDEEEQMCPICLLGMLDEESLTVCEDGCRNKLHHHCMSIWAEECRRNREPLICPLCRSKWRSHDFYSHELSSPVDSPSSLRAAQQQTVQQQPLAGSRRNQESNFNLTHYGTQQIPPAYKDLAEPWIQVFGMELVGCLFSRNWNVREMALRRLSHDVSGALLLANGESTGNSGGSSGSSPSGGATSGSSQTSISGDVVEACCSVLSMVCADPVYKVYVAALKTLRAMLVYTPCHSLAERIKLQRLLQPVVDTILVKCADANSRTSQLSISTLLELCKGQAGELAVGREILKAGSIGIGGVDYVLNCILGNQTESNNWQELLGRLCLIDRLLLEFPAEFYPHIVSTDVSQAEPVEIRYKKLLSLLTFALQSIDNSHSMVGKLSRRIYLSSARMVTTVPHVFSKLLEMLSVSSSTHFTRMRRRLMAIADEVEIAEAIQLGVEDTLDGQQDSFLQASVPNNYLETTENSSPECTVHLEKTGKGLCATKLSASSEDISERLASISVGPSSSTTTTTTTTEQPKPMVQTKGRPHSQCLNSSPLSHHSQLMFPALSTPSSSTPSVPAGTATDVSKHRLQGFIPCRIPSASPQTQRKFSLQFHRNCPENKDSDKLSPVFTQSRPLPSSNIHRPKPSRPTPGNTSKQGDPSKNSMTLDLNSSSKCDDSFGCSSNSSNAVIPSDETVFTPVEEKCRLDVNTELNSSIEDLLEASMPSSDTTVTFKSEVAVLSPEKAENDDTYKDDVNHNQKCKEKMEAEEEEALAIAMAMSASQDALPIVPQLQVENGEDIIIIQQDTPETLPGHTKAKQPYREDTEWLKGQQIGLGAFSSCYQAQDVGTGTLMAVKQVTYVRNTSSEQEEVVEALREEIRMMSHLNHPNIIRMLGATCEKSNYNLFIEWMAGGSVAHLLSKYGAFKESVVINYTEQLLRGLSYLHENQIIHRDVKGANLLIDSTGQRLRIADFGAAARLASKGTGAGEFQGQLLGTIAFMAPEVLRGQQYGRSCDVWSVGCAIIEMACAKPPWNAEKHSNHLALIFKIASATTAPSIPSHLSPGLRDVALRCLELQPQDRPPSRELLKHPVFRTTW

[19] = molecular target: Focal adhesion kinase 1 (Homo sapiens) (UniProt Q05397); experiment: Inhibition of FAK Lys1 labeling site in human Huh-7 cell lysate at 1 uM by KiNativ Profiling analysis relative to control; assay type: subcellular

With `CCN1CCN(Cc2ccc(NC(=O)c3ccc(C)c(Oc4ccnc5[nH]ccc45)c3)cc2C(F)(F)F)CC1` the inhibition [1] was “inactive”, the inhibition at 1 µM [2] was -5.3% and the percent of control [3] was 0%. The inhibition [4] was “inactive”, the inhibition [5] was 32.3% and the inhibition [6] was “inactive”. For the same compound, the inhibition [7] was “Dose-Dependent Effect”, the inhibition [8] was 19.3% and the inhibition [9] was “inactive”. The inhibition [10] was -6.1%, the inhibition [11] was 4.4% and the inhibition [12] was 8.4%.

In the case of `CCN1CCN(Cc2ccc(NC(=O)c3ccc(C)c(/C=C/c4cnc5[nH]ccc5c4OC)c3)cc2C(F)(F)F)CC1`, the residual activity [13] was 100% and the inhibition [14] was 9%.

For `CNc1cc(Oc2cc(C(=O)Nc3cc(N4CCN(C)CC4)cc(C(F)(F)F)c3)ccc2C)ncn1`, the inhibition [15] was 11.3%, the inhibition [16] was 15.3% and the inhibition [17] was 2.7%. For the same compound, the inhibition [18] was -2.3% and the inhibition [19] was 3.3%.
